From ChEMBL document CHEMBL5705896 (ACS Chem Biol, 2013)

Legend:
[1] = Cmax in Swiss albino mouse at 15 to 150 mg/kg administered as single ip dose measured upto 24 hrs; format: ADME, organism-based; conditions: in vivo, dose 15-150 mg/kg
[2] = molecular target: Histamine H1 receptor (Homo sapiens) (UniProt P35367); experiment: Inhibition of H1 receptor (unknown origin) at 10 uM by radioligand binding assay relative to control
[3] = molecular target: Serotonin 3 (5-HT3) receptor (Homo sapiens) (UniProt P46098+A5X5Y0+O95264+Q70Z44+Q8WXA8); experiment: Inhibition of 5-HT3 receptor (unknown origin) at 10 uM by radioligand binding assay relative to control; format: protein-complex assay
[4] = molecular target: 5-hydroxytryptamine receptor 1B (Homo sapiens) (UniProt P28222); experiment: Inhibition of 5-HT1B receptor (unknown origin) at 10 uM by radioligand binding assay relative to control
[5] = molecular target: Mu-type opioid receptor (Homo sapiens) (UniProt P35372); experiment: Inhibition of MOR (unknown origin) at 10 uM by radioligand binding assay relative to control
[6] = molecular target: 5-hydroxytryptamine receptor 2B (Homo sapiens) (UniProt P41595); experiment: Inhibition of 5-HT2B receptor (unknown origin) at 10 uM by radioligand binding assay relative to control
[7] = molecular target: Aurora kinase A (Homo sapiens) (UniProt O14965); experiment: Inhibition of full length human N-terminal GST tagged AurA (1 to 403 end residues) expressed in baculovirus expression system using kemptide as substrate at 10 uM by mobility shift assay relative to control
[8] = molecular target: 5-hydroxytryptamine receptor 7 (Homo sapiens) (UniProt P34969); experiment: Inhibition of 5-HT7 receptor (unknown origin) at 10 uM by radioligand binding assay relative to control
[9] = molecular target: Dual specificity tyrosine-phosphorylation-regulated kinase 1B (Homo sapiens) (UniProt Q9Y463); experiment: Inhibition of full length human N-terminal GST tagged DYRK1B (1 to 629 end residues) expressed in baculovirus expression system using DYRKtide-F as substrate at 10 uM by mobility shift assay relative to control
[10] = molecular target: Histone-lysine N-methyltransferase SUV39H2 (Homo sapiens, UniProt Q9H5I1); experiment: Inhibition of SUV39H2 (unknown origin) using [3H-SAM] as substrate incubated for 1 hr by scintillation proximity assay
[11] = molecular target: Translocator protein (Homo sapiens) (UniProt P30536); experiment: Inhibition of PBR (unknown origin) at 10 uM by radioligand binding assay relative to control
[12] = molecular target: Hepatocyte growth factor receptor (Homo sapiens) (UniProt P08581); experiment: Inhibition of human cytoplasmic domain N-terminal GST tagged MET (956 to 1390 end residues) expressed in baculovirus expression system using Srctide as substrate at 10 uM by mobility shift assay relative to control
[13] = molecular target: D(2) dopamine receptor (Homo sapiens) (UniProt P14416); experiment: Inhibition of dopamine D2 receptor (unknown origin) at 10 uM by radioligand binding assay relative to control
[14] = molecular target: N-lysine methyltransferase SMYD2 (Homo sapiens, UniProt Q9NRG4); experiment: Inhibition of SMYD2 (unknown origin) using [3H-SAM] as substrate incubated for 1 hr by scintillation proximity assay
[15] = molecular target: Muscarinic acetylcholine receptor M1 (Homo sapiens) (UniProt P11229); experiment: Inhibition of M1 receptor (unknown origin) at 10 uM by radioligand binding assay relative to control
[16] = molecular target: Histone-lysine N-methyltransferase KMT5C (Homo sapiens, UniProt Q86Y97); experiment: Inhibition of SUV420H2 (unknown origin) using [3H-SAM] as substrate incubated for 1 hr by scintillation proximity assay
[17] = molecular target: Sodium-dependent noradrenaline transporter (Homo sapiens, UniProt P23975)
Description: Binding affinity to NET (unknown origin) assessed as inhibition constant

[18] = molecular target: Histone-lysine N-methyltransferase KMT5B (Homo sapiens, UniProt Q4FZB7); experiment: Inhibition of SUV420H1 (unknown origin) using [3H-SAM] as substrate incubated for 1 hr by scintillation proximity assay
[19] = molecular target: Alpha-1D adrenergic receptor (Homo sapiens) (UniProt P25100); experiment: Inhibition of Alpha1D receptor (unknown origin) at 10 uM by radioligand binding assay relative to control
[20] = molecular target: Serine/threonine-protein kinase Nek2 (Homo sapiens) (UniProt P51955); experiment: Inhibition of full length human N-terminal his-tagged NEK2 (1 to 445 end residues) expressed in baculovirus expression system using CDK7 peptide as substrate at 10 uM by mobility shift assay relative to control
[21] = molecular target: Serine/threonine-protein kinase Chk1 (Homo sapiens) (UniProt O14757); experiment: Inhibition of full length human N-terminal GST tagged CHK1 (1 to 476 end residues) expressed in baculovirus expression system using chk-tide as substrate at 10 uM by mobility shift assay relative to control
[22] = molecular target: Histone-lysine N-methyltransferase 2A (Homo sapiens, UniProt Q03164); experiment: Inhibition of MLL1 (unknown origin) using [3H-SAM] as substrate incubated for 1 hr by scintillation proximity assay
[23] = molecular target: Insulin-like growth factor 1 receptor (Homo sapiens) (UniProt P08069); experiment: Inhibition of human cytoplasmic domain N-terminal GST tagged IGF1R (959 to 1367 end residues) expressed in baculovirus expression system using IRS1 as substrate at 10 uM by mobility shift assay relative to control
[24] = molecular target: 5-hydroxytryptamine receptor 1D (Homo sapiens) (UniProt P28221); experiment: Inhibition of 5-HT1D receptor (unknown origin) at 10 uM by radioligand binding assay relative to control
[25] = molecular target: Casein kinase I isoform epsilon (Homo sapiens) (UniProt P49674); experiment: Inhibition of human catalytic domain N-terminal GST tagged CK1epsilon (1 to 348 residues) expressed in baculovirus expression system using ck-tide as substrate at 10 uM by mobility shift assay relative to control
[26] = molecular target: Tyrosine-protein kinase JAK3 (Homo sapiens) (UniProt P52333); experiment: Inhibition of human catalytic domain N-terminal his tagged JAK3 (795 to 1124 end residues) expressed in baculovirus expression system using Srctide as substrate at 10 uM by mobility shift assay relative to control
[27] = molecular target: Mitogen-activated protein kinase kinase kinase kinase 4 (Homo sapiens) (UniProt O95819); experiment: Inhibition of human catalytic domain N-terminal GST tagged HGK (1 to 328 residues) expressed in baculovirus expression system using moesin-derived peptide as substrate at 10 uM by mobility shift assay relative to control
[28] = molecular target: Protein-tyrosine kinase 2-beta (Homo sapiens) (UniProt Q14289); experiment: Inhibition of full length human N-terminal GST tagged PYK2 (1 to 967 end residues) expressed in baculovirus expression system using Blk/lyntide as substrate at 10 uM by mobility shift assay relative to control
[29] = Inhibition of human catalytic domain N-terminal GST tagged p70S6K (1 to 421 residues) expressed in baculovirus expression system using S6K2 peptide as substrate at 10 uM by mobility shift assay relative to control; conditions: condition weaver syndrome
[30] = molecular target: Protein arginine N-methyltransferase 3 (Homo sapiens, UniProt O60678); experiment: Inhibition of PRMT3 (unknown origin) using [3H-SAM] as substrate incubated for 1 hr by scintillation proximity assay
Sequence of Protein arginine N-methyltransferase 3 (O60678 whole entry): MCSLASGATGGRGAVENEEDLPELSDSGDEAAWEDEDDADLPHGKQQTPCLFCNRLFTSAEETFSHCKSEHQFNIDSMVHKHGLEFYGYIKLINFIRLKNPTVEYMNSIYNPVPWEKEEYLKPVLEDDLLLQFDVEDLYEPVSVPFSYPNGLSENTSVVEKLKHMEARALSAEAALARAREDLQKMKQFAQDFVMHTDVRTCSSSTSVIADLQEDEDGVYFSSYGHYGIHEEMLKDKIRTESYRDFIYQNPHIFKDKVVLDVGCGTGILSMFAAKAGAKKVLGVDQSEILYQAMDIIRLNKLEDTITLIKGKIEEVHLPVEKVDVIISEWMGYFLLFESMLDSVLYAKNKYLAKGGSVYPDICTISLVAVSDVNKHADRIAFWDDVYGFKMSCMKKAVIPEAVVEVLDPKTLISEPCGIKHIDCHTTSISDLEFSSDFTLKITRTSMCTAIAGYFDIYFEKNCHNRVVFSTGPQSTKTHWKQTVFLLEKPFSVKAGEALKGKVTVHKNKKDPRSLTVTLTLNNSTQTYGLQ

Sequence of Serine/threonine-protein kinase Nek2 (Homo sapiens) (P51955 whole entry): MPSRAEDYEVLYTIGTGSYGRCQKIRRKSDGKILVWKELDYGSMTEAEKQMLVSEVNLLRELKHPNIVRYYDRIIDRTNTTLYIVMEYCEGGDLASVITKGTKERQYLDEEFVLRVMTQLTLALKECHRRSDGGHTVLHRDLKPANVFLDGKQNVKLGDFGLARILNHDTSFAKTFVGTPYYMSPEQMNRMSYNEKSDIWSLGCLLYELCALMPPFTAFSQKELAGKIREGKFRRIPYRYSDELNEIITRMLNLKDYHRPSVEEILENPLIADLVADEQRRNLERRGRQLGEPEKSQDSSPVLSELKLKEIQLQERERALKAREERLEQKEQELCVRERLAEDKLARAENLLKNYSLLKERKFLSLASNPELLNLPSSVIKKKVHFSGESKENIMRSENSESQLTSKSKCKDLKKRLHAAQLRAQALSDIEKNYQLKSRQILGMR
Sequence of Muscarinic acetylcholine receptor M1 (Homo sapiens) (P11229 whole entry): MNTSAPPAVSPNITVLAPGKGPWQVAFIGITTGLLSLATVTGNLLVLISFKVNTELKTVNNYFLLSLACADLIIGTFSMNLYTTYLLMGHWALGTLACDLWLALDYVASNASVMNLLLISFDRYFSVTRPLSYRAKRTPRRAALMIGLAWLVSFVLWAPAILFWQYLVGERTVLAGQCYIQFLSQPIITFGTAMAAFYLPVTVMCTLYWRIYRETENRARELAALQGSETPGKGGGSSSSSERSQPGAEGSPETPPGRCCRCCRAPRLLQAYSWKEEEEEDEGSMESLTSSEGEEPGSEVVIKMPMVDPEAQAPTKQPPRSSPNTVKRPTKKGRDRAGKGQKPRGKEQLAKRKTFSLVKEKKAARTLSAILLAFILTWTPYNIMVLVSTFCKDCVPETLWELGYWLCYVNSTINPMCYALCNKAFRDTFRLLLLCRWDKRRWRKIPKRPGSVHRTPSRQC
Sequence of Serine/threonine-protein kinase Chk1 (Homo sapiens) (O14757 whole entry): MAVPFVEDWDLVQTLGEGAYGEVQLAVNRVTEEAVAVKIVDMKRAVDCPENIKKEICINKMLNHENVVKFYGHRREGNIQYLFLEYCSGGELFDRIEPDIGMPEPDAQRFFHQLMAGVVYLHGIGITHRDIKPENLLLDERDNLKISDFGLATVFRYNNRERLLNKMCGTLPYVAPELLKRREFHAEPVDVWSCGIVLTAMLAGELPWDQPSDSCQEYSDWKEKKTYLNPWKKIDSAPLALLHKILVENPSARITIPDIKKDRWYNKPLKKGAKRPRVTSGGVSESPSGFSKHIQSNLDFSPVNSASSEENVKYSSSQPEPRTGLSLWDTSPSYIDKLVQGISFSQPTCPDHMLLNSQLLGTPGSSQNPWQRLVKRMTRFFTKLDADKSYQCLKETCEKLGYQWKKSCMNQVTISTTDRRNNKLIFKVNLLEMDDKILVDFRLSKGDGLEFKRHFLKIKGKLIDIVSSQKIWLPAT
Sequence of Histone-lysine N-methyltransferase SUV39H2 (Q9H5I1 whole entry): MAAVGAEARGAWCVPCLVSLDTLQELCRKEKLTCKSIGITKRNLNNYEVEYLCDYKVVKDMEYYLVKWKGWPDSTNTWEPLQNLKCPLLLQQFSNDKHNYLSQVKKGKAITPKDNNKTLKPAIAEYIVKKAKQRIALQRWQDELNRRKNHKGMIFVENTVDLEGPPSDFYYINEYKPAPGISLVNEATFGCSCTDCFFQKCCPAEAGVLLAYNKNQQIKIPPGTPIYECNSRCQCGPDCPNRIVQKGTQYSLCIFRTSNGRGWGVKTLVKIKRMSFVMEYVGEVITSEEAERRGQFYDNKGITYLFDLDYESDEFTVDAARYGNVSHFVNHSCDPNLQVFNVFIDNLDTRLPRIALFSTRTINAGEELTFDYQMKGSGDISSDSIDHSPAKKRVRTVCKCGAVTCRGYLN
Sequence of Insulin-like growth factor 1 receptor (Homo sapiens) (P08069 31-736 limits assumed): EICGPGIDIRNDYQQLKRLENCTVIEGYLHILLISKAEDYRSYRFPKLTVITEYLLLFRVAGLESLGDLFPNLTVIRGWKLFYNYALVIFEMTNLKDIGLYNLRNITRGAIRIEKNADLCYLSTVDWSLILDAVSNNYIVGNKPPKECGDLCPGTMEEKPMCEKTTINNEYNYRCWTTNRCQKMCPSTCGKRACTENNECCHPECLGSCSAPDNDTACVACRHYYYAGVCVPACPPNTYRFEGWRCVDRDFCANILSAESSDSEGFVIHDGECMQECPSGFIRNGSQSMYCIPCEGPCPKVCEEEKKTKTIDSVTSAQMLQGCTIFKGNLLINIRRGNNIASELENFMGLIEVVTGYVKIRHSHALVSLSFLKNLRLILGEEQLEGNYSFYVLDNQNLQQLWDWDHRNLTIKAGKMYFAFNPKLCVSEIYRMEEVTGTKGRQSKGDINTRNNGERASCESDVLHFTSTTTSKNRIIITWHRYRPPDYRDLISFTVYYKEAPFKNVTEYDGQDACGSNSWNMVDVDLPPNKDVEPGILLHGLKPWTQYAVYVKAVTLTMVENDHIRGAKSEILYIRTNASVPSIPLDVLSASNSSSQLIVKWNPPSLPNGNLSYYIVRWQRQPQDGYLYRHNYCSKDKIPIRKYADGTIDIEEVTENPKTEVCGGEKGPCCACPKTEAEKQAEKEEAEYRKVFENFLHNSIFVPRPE
Sequence of Insulin-like growth factor 1 receptor (Homo sapiens) (P08069 741-1367 limits assumed): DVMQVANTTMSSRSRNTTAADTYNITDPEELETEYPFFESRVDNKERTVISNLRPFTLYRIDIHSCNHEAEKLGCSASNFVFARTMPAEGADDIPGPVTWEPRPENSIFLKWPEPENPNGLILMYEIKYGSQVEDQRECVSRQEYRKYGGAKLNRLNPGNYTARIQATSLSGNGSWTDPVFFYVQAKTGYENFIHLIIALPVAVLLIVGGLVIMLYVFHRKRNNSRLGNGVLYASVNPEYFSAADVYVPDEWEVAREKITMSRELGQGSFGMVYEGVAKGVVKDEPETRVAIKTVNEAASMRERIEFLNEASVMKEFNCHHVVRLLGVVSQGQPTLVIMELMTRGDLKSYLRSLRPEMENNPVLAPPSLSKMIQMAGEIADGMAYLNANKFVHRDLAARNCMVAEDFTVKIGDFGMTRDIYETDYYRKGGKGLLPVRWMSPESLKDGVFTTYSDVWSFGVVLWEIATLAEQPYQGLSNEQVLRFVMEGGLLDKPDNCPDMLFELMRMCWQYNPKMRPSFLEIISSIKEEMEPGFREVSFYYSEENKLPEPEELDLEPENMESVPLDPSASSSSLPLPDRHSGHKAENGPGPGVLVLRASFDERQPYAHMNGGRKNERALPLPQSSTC
Sequence of Histone-lysine N-methyltransferase KMT5C (Q86Y97 whole entry): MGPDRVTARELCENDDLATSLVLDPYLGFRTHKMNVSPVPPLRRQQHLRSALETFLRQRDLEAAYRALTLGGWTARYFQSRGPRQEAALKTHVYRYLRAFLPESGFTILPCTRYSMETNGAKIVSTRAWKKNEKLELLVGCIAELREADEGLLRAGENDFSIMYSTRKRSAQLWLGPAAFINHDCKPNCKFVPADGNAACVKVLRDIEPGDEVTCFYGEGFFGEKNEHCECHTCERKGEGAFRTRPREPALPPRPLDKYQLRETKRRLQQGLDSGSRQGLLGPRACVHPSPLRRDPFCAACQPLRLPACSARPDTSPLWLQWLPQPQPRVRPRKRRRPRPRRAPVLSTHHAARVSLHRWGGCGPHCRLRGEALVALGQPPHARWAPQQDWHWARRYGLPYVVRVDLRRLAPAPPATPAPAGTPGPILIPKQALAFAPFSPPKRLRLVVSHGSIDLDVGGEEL
Sequence of D(2) dopamine receptor (Homo sapiens) (P14416 whole entry): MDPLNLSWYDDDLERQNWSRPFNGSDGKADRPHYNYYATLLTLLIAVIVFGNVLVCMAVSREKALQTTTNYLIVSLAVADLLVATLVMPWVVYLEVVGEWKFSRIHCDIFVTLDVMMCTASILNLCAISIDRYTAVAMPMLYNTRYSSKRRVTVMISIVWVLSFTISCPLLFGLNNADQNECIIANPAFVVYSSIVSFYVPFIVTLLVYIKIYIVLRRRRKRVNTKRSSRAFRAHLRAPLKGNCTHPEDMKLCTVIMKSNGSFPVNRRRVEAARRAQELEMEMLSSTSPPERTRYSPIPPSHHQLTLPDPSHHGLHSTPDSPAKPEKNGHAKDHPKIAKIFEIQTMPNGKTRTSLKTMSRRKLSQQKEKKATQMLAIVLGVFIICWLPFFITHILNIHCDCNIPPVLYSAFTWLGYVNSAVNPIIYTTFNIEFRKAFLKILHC
Sequence of Mu-type opioid receptor (Homo sapiens) (P35372 whole entry): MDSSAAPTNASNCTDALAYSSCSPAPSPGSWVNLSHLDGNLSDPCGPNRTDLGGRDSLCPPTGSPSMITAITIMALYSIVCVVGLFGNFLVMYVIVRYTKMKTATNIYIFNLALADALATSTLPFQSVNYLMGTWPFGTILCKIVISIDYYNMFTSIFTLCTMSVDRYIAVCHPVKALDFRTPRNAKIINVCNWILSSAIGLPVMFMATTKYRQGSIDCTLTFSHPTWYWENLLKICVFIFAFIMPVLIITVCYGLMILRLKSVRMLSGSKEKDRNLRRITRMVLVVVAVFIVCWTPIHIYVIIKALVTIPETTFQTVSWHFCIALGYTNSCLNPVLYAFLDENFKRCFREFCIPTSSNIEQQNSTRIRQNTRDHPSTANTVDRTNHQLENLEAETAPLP

CCCc1cc(C)[nH]c(=O)c1CNC(=O)c1cc(-c2ccc(N3CCN(C(C)C)CC3)nc2)cc2c1cnn2C(C)C
Cmax [1]: 9.7 µM
inhibition [2]: 16%
inhibition [3]: 12%
inhibition [4]: 44%
inhibition [5]: 13%
inhibition [6]: -9%
inhibition [7]: -4%
inhibition [8]: -4%
inhibition [9]: -4%
IC50 [10]: > 100 µM
inhibition [11]: 31%
inhibition [12]: -3%
inhibition [13]: 9%
IC50 [14]: > 100 µM
inhibition [15]: 19%
IC50 [16]: > 100 µM
Ki [17]: 1.5 µM
IC50 [18]: > 100 µM
inhibition [19]: 14%
inhibition [20]: -4%
inhibition [21]: -2%
IC50 [22]: > 100 µM
inhibition [23]: -7%
inhibition [24]: 50%
inhibition [25]: -4%
inhibition [26]: -8%
inhibition [27]: -2%
inhibition [28]: -5%
inhibition at 10 µM [29]: 6%
IC50 [30]: > 100 µM
